{"source": "patent US9232796B2", "about": "“Herbicidal compositions comprising 4-amino-3-chloro-5-fluoro-6-(4-chloro-2-fluoro-3-methoxyphenyl) pyridine-2-carboxylic acid or a derivative thereof and acetyl-CoA carboxylase (ACCase) inhibitors” (DOW AGROSCIENCES LLC, priority 2012, dated 2016)", "key": {"LEFCH": {"system": "LEFCH", "assay": "Example V (second) postemergence foliar-applied ternary mixtures, greenhouse, direct seeded rice weeds", "format": "in vivo, Leptochloa chinensis (L.) Nees", "procedure": "The treated plants and control plants were placed in a greenhouse as described above and watered by sub-irrigation to prevent wash-off of the test compounds. After approximately 3 weeks, the condition of the test plants as compared with that of the untreated plants was determined visually and scored on a scale of 0 to 100 percent where 0 corresponds to no injury or growth inhibition and 100 corresponds to complete kill.\nColby's equation was used to determine the herbicidal effects expected from the mixtures (Colby, S. R. 1967. Calculation of the synergistic and antagonistic response of herbicide combinations. Weeds 15:20-22.).\nThe following equation was used to calculate the expected activity of mixtures containing three active ingredients, A, B, and C: Expected=A+B+C−((A×B+A×C+B×C)/100)+(A×B×C/10000)"}, "SCPMU": {"system": "SCPMU", "assay": "Example V post-emergence field trials in direct-seeded rice", "format": "in vivo, Schoenoplectus mucronatus", "settings": "foliar, field trial Italy", "procedure": "(§1) Multiple field trials were conducted under commercial grower field conditions in Tolima, Colombia; Thessaloniki, Greece; Bianze and Copiano, Italy; and Humphrey, Ark., USA. Trials sites were located in commercially grown fields of direct-seeded rice (Oryza sativa) using standard herbicide small plot research methodology. Plots varied from 2 to 3 meter (m)×5 to 8 m (width×length) with 4 replicates per treatment. The rice crop was grown using normal cultural practices for fertilization, seeding, watering, flooding and maintenance to ensure good growth of the crop and the weeds.\n(§2) All treatments in the field trials were applied using a backpack compressed air/gas sprayer with flat fan nozzles (80° or 110°) calibrated to apply 187 to 300 L/ha spray volume at approximately 200-400 kPa nozzle pressure. Commercially available products of cyhalofop-butyl (Clincher 180EC, Clincher 200EC, and Clincher SF (285 gr ai/L EC)) were mixed in water at appropriate formulated product rates to achieve the desired rates based on a unit area of application (hectare) to achieve the desired rates as shown. Treatments were rate at 19 to 58 days after application (DAA) as compared to the untreated control plants. Visual weed control was scored on a scale of 0 to 100 percent where 0 corresponds to no injury and 100 corresponds to complete kill. […]"}, "ECHCG": {"system": "ECHCG", "assay": "Example V post-emergence field trials in direct-seeded rice", "format": "in vivo, Echinochloa crus-galli", "settings": "foliar, field trial Greece", "procedure": "as §1, §2"}, "CYPRO": {"system": "CYPRO", "assay": "Example VI in-water applied ternary mixtures, greenhouse, transplanted paddy rice weeds", "format": "in vivo, Cyperus rotundus L.", "procedure": "Weed seeds or nutlets of the desired test plant species were planted in puddled soil (mud) prepared by mixing a shredded, non-sterilized mineral soil (50.5 percent silt, 25.5 percent clay, and 24 percent sand, with a pH of about 7.6 and an organic matter content of about 2.9 percent) and water at a 1:1 volumetric ratio. The prepared mud was dispensed in 365 mL aliquots into 16-ounce (oz.) non-perforated plastic pots with a surface area of 86.59 square centimeters (cm^2) leaving a headspace of 3 centimeters (cm) in each pot. Mud was allowed to dry overnight prior to planting or transplanting. Rice seeds were planted in Sun Gro MetroMix® 306 planting mixture, which typically has a pH of 6.0 to 6.8 and an organic matter content of about 30 percent, in plastic plug trays. Seedlings at the second or third leaf stage of growth were transplanted into 860 mL of mud contained in 32-oz. non-perforated plastic pots with a surface area of 86.59 cm^2 4 days prior to herbicide application. The paddy was created by filling the headspace of the pots with 2.5 to 3 cm of water. When required to ensure good germination and healthy plants, a fungicide treatment and/or other chemical or physical treatment was applied. The plants were grown for 4-22 days in a greenhouse with an approximate 14 hr. photoperiod which was maintained at about 29° C. during the day and 26° C. during the night. Nutrients were added as Osmocote® (19:6:12, N:P:K+minor nutrients) at 2 g per 16-oz. pot and 4 g per 32-oz. pot. Water was added on a regular basis to maintain the paddy flood, and supplemental lighting was provided with overhead metal halide 1000-Watt lamps as necessary. The plants were employed for testing when they reached the first through fourth true leaf stage.\nTreatments consisted of the benzyl ester of 4-amino-3-chloro-5-fluoro-6-(4-chloro-2-fluoro-3-methoxy-phenyl)pyridine-2-carboxylic acid (Compound A), formulated as an SC (suspension concentrate), an ACCase inhibitor herbicide, and a third herbicidal component, each applied alone and in ternary combination. Forms of compound A were applied on an acid equivalent basis.\nThe ACCase inhibitor component was applied on an active ingredient basis and included cyhalofop-R-butyl formulated as Clincher® G and metamifop formulated as Metamifop EC. Other herbicidal components were applied on an active ingredient or acid equivalent basis depending on the compound and included penoxsulam formulated as Grasp® SC, bentazon sodium formulated as Basagran®, triclopyr […] (TEA) salt formulated as Grandstand® R, benzobicyclon formulated as Benzobicyclon, benfuresate formulated as Full Slot® WG, pyraclonil formulated as Pyraclon® Flowable, mefenacet (technical grade material), and pretilachlor (technical grade material).\nTreatment requirements for each compound or herbicidal component were calculated based upon the rates being tested, the concentration of active ingredient or acid equivalent in the formulation, an application volume of 1 mL per component per pot, and an application area of 86.59 cm^2 per pot.\nFor formulated compounds, a measured amount was placed in an individual 100 or 200 mL glass vial and was dissolved in a volume of 1.25% (v/v) Agri-Dex® crop oil concentrate to obtain application solutions.\nFor technical grade compounds, a weighed amount was placed in an individual 100 to 200 mL glass vial and was dissolved in a volume of acetone to obtain concentrated stock solutions.\nApplications were made by injecting with a pipetter appropriate amounts of the application solutions, into the aqueous layer of the paddy. Control plants were treated in the same manner with the solvent blank. Applications were made so that all treated plant material received the same concentrations of acetone and crop oil concentrate.\nThe treated plants and control plants were placed in a greenhouse as described above and water was added as needed to maintain a paddy flood. […]"}}}
{"smiles": "CCCCOC(=O)[C@@H](C)Oc1ccc(Oc2ccc(C#N)cc2F)cc1", "note": "[Cyhalofop-butyl, butyl(2R)-2-[4-(4-cyano-2-fluorophenoxy)phenoxy]propanoate, reference compound]", "values": [{"measurement": "Visual Weed Control (%) - 21 DAA LEFCH Obs", "setting": "LEFCH; 35 gai/ha", "value": 68, "unit": "%"}, {"measurement": "Visual Weed Control (%) - 22 DAA LEFCH Obs", "setting": "LEFCH; 35 gai/ha", "value": 70, "unit": "%"}, {"measurement": "Visual Weed Control (%) - 55-58 DAA SCPMU Obs", "setting": "SCPMU; 300 gai/ha", "value": 6, "unit": "%"}, {"measurement": "Visual Weed Control (%) - 55-58 DAA ECHCG Obs", "setting": "ECHCG; 300 gai/ha", "value": 29, "unit": "%"}, {"measurement": "Visual Weed Control (%) - 21 DAA CYPRO Obs", "setting": "CYPRO; 22.5 gai/ha", "value": 0, "unit": "%"}, {"measurement": "Visual Weed Control (%) - 21 DAA CYPRO Obs", "setting": "CYPRO; 45 gai/ha", "value": 0, "unit": "%"}, {"measurement": "Visual Weed Control (%) - 24 DAA CYPRO Obs", "setting": "CYPRO; 90 gai/ha", "value": 0, "unit": "%"}, {"measurement": "Visual Weed Control (%) - 24 DAA CYPRO Obs", "setting": "CYPRO; 180 gai/ha", "value": 0, "unit": "%"}, {"measurement": "Visual Weed Control (%) - 21 DAA CYPRO Obs", "setting": "CYPRO; Table 69, 90 gai/ha, 21 DAA", "value": 0, "unit": "%"}, {"measurement": "Visual Weed Control (%) - 21 DAA CYPRO Obs", "setting": "CYPRO; Table 69, 180 gai/ha, 21 DAA", "value": 0, "unit": "%"}, {"measurement": "Visual Weed Control (%) - 21 DAA CYPRO Obs", "setting": "CYPRO; Table 70, 180 gai/ha, 21 DAA", "value": 0, "unit": "%"}]}
{"smiles": "COc1c(Cl)ccc(-c2nc(C(=O)OCc3ccccc3)c(Cl)c(N)c2F)c1F", "note": "[Compound A Benzyl Ester, benzyl ester of 4-amino-3-chloro-5-fluoro-6-(4-chloro-2-fluoro-3-methoxy-phenyl)pyridine-2-carboxylic acid]", "values": [{"measurement": "Visual Weed Control (%) - 22 DAA LEFCH Obs", "setting": "LEFCH; 8 gae/ha", "value": 28, "unit": "%"}, {"measurement": "Visual Weed Control (%) - 21 DAA LEFCH Obs", "setting": "LEFCH; 16 gae/ha", "value": 25, "unit": "%"}, {"measurement": "Visual Weed Control (%) - 55-58 DAA SCPMU Obs", "setting": "SCPMU; 24 gae/ha", "value": 27, "unit": "%"}, {"measurement": "Visual Weed Control (%) - 55-58 DAA ECHCG Obs", "setting": "ECHCG; 24 gae/ha", "value": 6, "unit": "%"}, {"measurement": "Visual Weed Control (%) - 21 DAA CYPRO Obs", "setting": "CYPRO; 2.19 gae/ha", "value": 0, "unit": "%"}, {"measurement": "Visual Weed Control (%) - 24 DAA CYPRO Obs", "setting": "CYPRO; 4 gae/ha", "value": 40, "unit": "%"}, {"measurement": "Visual Weed Control (%) - 24 DAA CYPRO Obs", "setting": "CYPRO; 8 gae/ha", "value": 60, "unit": "%"}, {"measurement": "Visual Weed Control (%) - 24 DAA CYPRO Obs", "setting": "CYPRO; 16 gae/ha", "value": 85, "unit": "%"}, {"measurement": "Visual Weed Control (%) - 21 DAA CYPRO Obs", "setting": "CYPRO; Table 69, 4 gae/ha, 21 DAA", "value": 3, "unit": "%"}, {"measurement": "Visual Weed Control (%) - 21 DAA CYPRO Obs", "setting": "CYPRO; Table 69, 8 gae/ha, 21 DAA", "value": 33, "unit": "%"}, {"measurement": "Visual Weed Control (%) - 21 DAA CYPRO Obs", "setting": "CYPRO; Table 70, 4 gae/ha, 21 DAA", "value": 3, "unit": "%"}, {"measurement": "Visual Weed Control (%) - 21 DAA CYPRO Obs", "setting": "CYPRO; Table 70, 8 gae/ha, 21 DAA", "value": 33, "unit": "%"}]}
